For six molecules, pIC50 results are on record in patent publication US20240209019A1, “COMPOUNDS AND METHODS FOR TREATING HYPERKALEMIA” (ARDELYX, INC., priority 2019, published 2024).

Each structure is given as a SMILES string.

The assay addresses HSD2 (Homo sapiens (Human), UniProt P80365). Kind of assay: HSD2 activity: cortisol conversion in human descending colon organoid monolayer cultures (Example 112). The following applies: human descending colon epithelial cultures on transwells; 30 minute pre-incubation, then 40 nM cortisol for four hours; cortisol HTRF assay.

HSD2, sequence (P80365 whole entry): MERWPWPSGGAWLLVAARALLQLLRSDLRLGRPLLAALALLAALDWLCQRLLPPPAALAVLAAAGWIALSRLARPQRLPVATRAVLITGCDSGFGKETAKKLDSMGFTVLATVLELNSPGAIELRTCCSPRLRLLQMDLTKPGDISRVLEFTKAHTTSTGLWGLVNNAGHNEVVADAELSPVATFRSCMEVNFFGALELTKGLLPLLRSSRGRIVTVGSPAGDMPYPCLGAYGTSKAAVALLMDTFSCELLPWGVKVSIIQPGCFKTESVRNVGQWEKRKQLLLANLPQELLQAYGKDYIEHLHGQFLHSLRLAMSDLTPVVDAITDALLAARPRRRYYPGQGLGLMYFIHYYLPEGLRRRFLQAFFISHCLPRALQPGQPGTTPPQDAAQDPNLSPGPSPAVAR
Experimental: Human descending colon epithelial stem cells were cultured as 3D organoids in accordance with Sato et al. Gastroenterology. […] Cultures were differentiated using SBM containing ENRA and 30 nM aldosterone on day 3, and cultures were used for assay on day 6 or 7. Compounds were diluted in DMSO and serial dilutions prepared by titrating in DMSO. Compounds were then diluted into DMEM/F12. Transwell plates containing descending colon cultures were washed twice with DMEM/F12 and compound was added to the apical compartment. Cells were incubated with test compound for 30 minutes at 37° C., 5% CO2 to equilibrate across the cell membrane. A second compound plate was prepared in which the serially diluted compounds in DMSO were diluted into DMEM/F12 containing 40 nM cortisol. Following the 30 minute pre-incubation step, the apical media was aspirated and compounds diluted in DMEM/F12 with 40 nM cortisol were added to the apical side of the transwell. The plate was then incubated for four hours at 37° C., 5% CO2. Cortisol levels were measured using a cortisol HTRF assay kit as described by the manufacturer (Cisbio). Concentration-response curves were then plotted and IC50 (and pIC50) values were determined using least squares non-linear regression.
Inhibition of HSD2 activity as measured by the inhibition of the conversion of cortisone to cortisol.

The term pIC50 denotes −log10 of the IC50, conventionally taken in molar units. Lower therefore signals a large IC50. The molecule `COC(=O)N[C@H]1CC[C@@]2(C)[C@@H](CC[C@]3(C)[C@@H]2C(=O)C=C2[C@@H]4C[C@@](C)(C(=O)O)CC[C@]4(C)CC[C@]23C)[C@]1(C)C(=O)OCc1oc(=O)oc1C` [Compound 281-3, (2S,4aS,6aS,6bR,8aR,9S,10S,12aS,12bR,14bR)-10-((methoxycarbonyl)amino)-2,4a,6a,6b,9,12a-hexamethyl-9-(((5-methyl-2-oxo-1,3-dioxol-4-yl)methoxy)carbonyl)-13-oxo-1,2,3,4,4a,5,6,6a,6b,7,8,8a,9,10,11,12,12a,12b,13,14b-icosahydropicene-2-carboxylic acid] showed a pIC50 of 6.7.

Consider `CCc1oc(=O)oc1COC(=O)[C@]1(C)[C@@H](OC(C)=O)CC[C@@]2(C)[C@H]1CC[C@]1(C)[C@@H]2C(=O)C=C2[C@@H]3C[C@@](C)(C(=O)O)CC[C@]3(C)CC[C@]21C` [Compound 316-1, (2S,4aS,6aS,6bR,8aR,9S,10S,12aS,12bR,14bR)-10-acetoxy-9-(((5-ethyl-2-oxo-1,3-dioxol-4-yl)methoxy)carbonyl)-2,4a,6a,6b,9,12a-hexamethyl-13-oxo-1,2,3,4,4a,5,6,6a,6b,7,8,8a,9,10,11,12,12a,12b,13,14b-icosahydropicene-2-carboxylic acid], for which the pIC50 turned out to be 7.5.

With `CC(=O)O[C@H]1CC[C@@]2(C)[C@@H](CC[C@]3(C)[C@@H]2C(=O)C=C2[C@@H]4C[C@@](C)(C(=O)O)CC[C@]4(C)CC[C@]23C)[C@]1(C)C(=O)OCc1oc(=O)oc1C` [Compound 243-1, (2S,4aS,6aS,6bR,8aR,9S,10S,12aS,12bR,14bR)-10-Acetoxy-2,4a,6a,6b,9,12a-hexamethyl-9-(((5-methyl-2-oxo-1,3-dioxol-4-yl)methoxy)carbonyl)-13-oxo-1,2,3,4,4a,5,6,6a,6b,7,8,8a,9,10,11,12,12a,12b,13,14b-icosahydropicene-2-carboxylic acid], the pIC50 is reported as 7.5.

`CC1(C)[C@@H](C(=O)O)CC[C@]2(C)[C@H]3C(=O)C=C4[C@@H]5C[C@@](C)(C(=O)O)CC[C@]5(C)CC[C@@]4(C)[C@]3(C)CC[C@@H]12` [(2S,4aS,6aS,6bR,8aS,10S,12aS,12bR,14bR)-2,4a,6a,6b,9,9,12a-heptamethyl-13-oxo-1,2,3,4,4a,5,6,6a,6b,7,8,8a,9,10,11,12,12a,12b,13,14b-icosahydropicene-2,10-dicarboxylic acid] showed a pIC50 of 5.5.

In turn, `CCCc1oc(=O)oc1COC(=O)[C@]1(C)[C@@H](OC(C)=O)CC[C@@]2(C)[C@H]1CC[C@]1(C)[C@@H]2C(=O)C=C2[C@@H]3C[C@@](C)(C(=O)O)CC[C@]3(C)CC[C@]21C` [Compound 706-1, (2S,4aS,6aS,6bR,8aR,9S,10S,12aS,12bR,14bR)-10-(acetyloxy)-2,4a,6a,6b,9,12a-hexamethyl-13-oxo-9-{[(2-oxo-5-propyl-2H-1,3-dioxol-4-yl)methoxy]carbonyl}-1,2,3,4,4a,5,6,6a,6b,7,8,8a,9,10,11,12,12a,12b,13,14b-icosahydropicene-2-carboxylic acid] had a pIC50 of 6.7.

Take `COCCOCCOCCSCc1oc(=O)oc1COC(=O)CO[C@H]1CC[C@]2(C)[C@H]3C(=O)C=C4[C@@H]5C[C@@](C)(C(=O)O)CC[C@]5(C)CC[C@@]4(C)[C@]3(C)CC[C@H]2C1(C)C` [Compound 710-1, (2S,4aS,6aS,6bR,8aR,10S,12aS,12bR,14bR)-2,4a,6a,6b,9,9,12a-heptamethyl-13-oxo-10-(2-oxo-2-{[2-oxo-5-(2,5,8-trioxa-11-thiadodecan-12-yl)-2H-1,3-dioxol-4-yl]methoxy}ethoxy)-1,2,3,4,4a,5,6,6a,6b,7,8,8a,9,10,11,12,12a,12b,13,14b-icosahydropicene-2-carboxylic acid]: the pIC50 is 6.
